In PubChem BioAssay AID2060340 (Molecular Pharmacology Branch, DTP, NCI, 2025):

Tested on: 349418-098-R-PDC spheroids, viability, % test/control
Test: Anticancer human tumor 349418-098-R-PDC patient-derived lung adenocarcinoma cell line growth inhibition [IpAb]
Conditions: spheroids with HUVEC and MSC; for IC50: curve of first compound; for viability, T/C: stronger effect = lower value
Method in brief: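 Multi-cell spheroids of 60% tumour cells, 25% HUVEC and 15% MSC in ultra-low-attachment U-bottom wells, treated with agents combined with ipatasertib or abemaciclib. Half-log ranges top out near clinical Cmax, or 10 microM when Cmax is unknown.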

[1] = second compound 0.1 µM, first compound 0.0316 µM
[2] = second compound 0.1 µM, first compound 0.1 µM
[3] = second compound 0.316 µM, first compound 0.0316 µM
[4] = second compound 0.316 µM, first compound 0.1 µM
[5] = second compound 1 µM, first compound 0.0316 µM
[6] = second compound 1 µM, first compound 0.1 µM
[7] = second compound 3.16 µM, first compound 0.0316 µM
[8] = second compound 3.16 µM, first compound 0.1 µM
[9] = second compound 10 µM, first compound 0.0316 µM
[10] = second compound 10 µM, first compound 0.1 µM
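Further: spheroids exposed to compounds for 7 days.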

Structure (SMILES): Cn1ncc(Cl)c1-c1cc(C(=O)NC(CN)Cc2cccc(F)c2)sc1Cl (stereo not given) + CC(C)NCC(C(=O)N1CCN(c2ncnc3c2C(C)CC3O)CC1)c1ccc(Cl)cc1
- IC50 (second compound 0.1 µM): 90.8 nM
- IC50 (second compound 0.316 µM): < 31.6 nM
- IC50 (second compound 1 µM): < 31.6 nM
- IC50 (second compound 3.16 µM): < 31.6 nM
- IC50 (second compound 10 µM): < 31.6 nM
- viability, T/C [1]: 79.5%
- viability, T/C [2]: 45.1%
- viability, T/C (second compound 0.1 µM, first compound 0.316 µM): 29.4%
- viability, T/C (second compound 0.1 µM, first compound 1 µM): 12.3%
- viability, T/C (second compound 0.1 µM, first compound 3.16 µM): 6.88%
- viability, T/C (second compound 0.1 µM, first compound 10 µM): 0.08%
- viability, T/C [3]: 49.7%
- viability, T/C [4]: 31.8%
- viability, T/C (second compound 0.316 µM, first compound 0.316 µM): 25.3%
- viability, T/C (second compound 0.316 µM, first compound 1 µM): 12.1%
- viability, T/C (second compound 0.316 µM, first compound 3.16 µM): 7.48%
- viability, T/C (second compound 0.316 µM, first compound 10 µM): 0.08%
- viability, T/C [5]: 23.2%
- viability, T/C [6]: 22.2%
- viability, T/C (second compound 1 µM, first compound 0.316 µM): 15.9%
- viability, T/C (second compound 1 µM, first compound 1 µM): 10.1%
- viability, T/C (second compound 1 µM, first compound 3.16 µM): 6.54%
- viability, T/C (second compound 1 µM, first compound 10 µM): 0.08%
- viability, T/C [7]: 15.3%
- viability, T/C [8]: 12.2%
- viability, T/C (second compound 3.16 µM, first compound 0.316 µM): 10.8%
- viability, T/C (second compound 3.16 µM, first compound 1 µM): 8.53%
- viability, T/C (second compound 3.16 µM, first compound 3.16 µM): 6.62%
- viability, T/C (second compound 3.16 µM, first compound 10 µM): 0.19%
- viability, T/C [9]: 7.77%
- viability, T/C [10]: 8.14%
- viability, T/C (second compound 10 µM, first compound 0.316 µM): 7.56%
- viability, T/C (second compound 10 µM, first compound 1 µM): 6.63%
- viability, T/C (second compound 10 µM, first compound 3.16 µM): 5.87%
- viability, T/C (second compound 10 µM, first compound 10 µM): 0.18%

Structure (SMILES): Cn1ncnc1[C@H]1c2n[nH]c(=O)c3cc(F)cc(c23)N[C@@H]1c1ccc(F)cc1 + CC(C)NCC(C(=O)N1CCN(c2ncnc3c2C(C)CC3O)CC1)c1ccc(Cl)cc1
- IC50 (second compound 0.1 µM): > 100 nM
- IC50 (second compound 0.316 µM): 0.621 nM
- IC50 (second compound 1 µM): < 0.316 nM
- IC50 (second compound 3.16 µM): < 0.316 nM
- IC50 (second compound 10 µM): < 0.316 nM
- viability, T/C (second compound 0.1 µM, first compound 0.000316 µM): 82.5%
- viability, T/C (second compound 0.1 µM, first compound 0.001 µM): 80.5%
- viability, T/C (second compound 0.1 µM, first compound 0.00316 µM): 77.3%
- viability, T/C (second compound 0.1 µM, first compound 0.01 µM): 70%
- viability, T/C [1]: 68.7%
- viability, T/C [2]: 76.7%
- viability, T/C (second compound 0.316 µM, first compound 0.000316 µM): 52.6%
- viability, T/C (second compound 0.316 µM, first compound 0.001 µM): 48.4%
- viability, T/C (second compound 0.316 µM, first compound 0.00316 µM): 42.8%
- viability, T/C (second compound 0.316 µM, first compound 0.01 µM): 46.8%
- viability, T/C [3]: 41.7%
- viability, T/C [4]: 37%
- viability, T/C (second compound 1 µM, first compound 0.000316 µM): 26.4%
- viability, T/C (second compound 1 µM, first compound 0.001 µM): 24.1%
- viability, T/C (second compound 1 µM, first compound 0.00316 µM): 18.9%
- viability, T/C (second compound 1 µM, first compound 0.01 µM): 16.7%
- viability, T/C [5]: 17.2%
- viability, T/C [6]: 17.1%
- viability, T/C (second compound 3.16 µM, first compound 0.000316 µM): 13.8%
- viability, T/C (second compound 3.16 µM, first compound 0.001 µM): 15.8%
- viability, T/C (second compound 3.16 µM, first compound 0.00316 µM): 11.1%
- viability, T/C (second compound 3.16 µM, first compound 0.01 µM): 10.2%
- viability, T/C [7]: 9.16%
- viability, T/C [8]: 7.75%
- viability, T/C (second compound 10 µM, first compound 0.000316 µM): 9.03%
- viability, T/C (second compound 10 µM, first compound 0.001 µM): 7.63%
- viability, T/C (second compound 10 µM, first compound 0.00316 µM): 6.62%
- viability, T/C (second compound 10 µM, first compound 0.01 µM): 6.38%
- viability, T/C [9]: 5.72%
- viability, T/C [10]: 6.34%
